Experimental data: patent US10918108B2, “Synergistic herbicidal composition” (JIANGSU ROTAM CHEMISTRY CO., LTD, priority 2016, dated 2021)

Tested on: gramineous weeds, broadleaf weeds and sedge weeds
Assay: Weed control efficacy, greenhouse pot test, survival rate compared with Colby value (Table 1)
Assay type: in vivo
Source text: The desired efficacy of the combination of three active compounds can be calculated through “Colby formula” as follows (S. R. Colby, “Calculating Synergistic and Antagonistic Responses of Herbicide Combinations, Weeds 1967, 15, 20-22): if
A is the activity of active compound A when used in an amount of mg/ha or concentrate of mppm, expressed as a percentage of untreated control;
B is the activity of active compound B when used in an amount of ng/ha or concentrate of nppm, expressed as a percentage of untreated control;
C is the activity of active compound C when used in an amount of hg/ha or concentrate of hppm, expressed as a percentage of untreated control;
E0 is the anticipated activity of active compounds A, B and C when used in an amount of m, n, h g/ha or concentrate of m, n, h ppm, E0=A×B×C/(100^(N-1)) N=3;
If the observed actual activity E is greater than the anticipated activity (E0), then the composition has synergistic effect.
If the observed actual efficiency of weed control (E) through the biology test is greater than the anticipated value (E0) as calculated via Colby's equation, then it represents that the efficacy of herbicidal composition is greater than the sum of efficacy of each component, which means the composition has synergistic effect.
Use stem and leaf treatment for potted grown plant(NY/T 1155.4-2006): fill a plastic pot (6 cm height, 9 cm diameter) with a quantity of soil and sow 15 to 20 seeds of monocotyledonous weeds and dicotyledonous weeds in the plastic pot, cover it with 0.5 to 1 cm thick of fine soil and then put it in greenhouse for cultivation. When weeds grow to the 2 to 4 leave stage, conduct the stem and leaf spray treatment with 1 mL herbicidal solution on each pot and repeat four times for each treatment and leave some pots untreated as control group. Keep the treated pots in a greenhouse for cultivation and observe the growing status of target weeds periodically. Conduct the visual test on the target weeds regarding the damage symptoms and growth inhibition effect after 21 days. Weigh up the fresh weight above the ground or plant fresh weight and evaluate the toxicity of the herbicidal formulation on target weeds based on the fresh weight inhibition rate of the target.
Prepare the following formulations according to specific weight percentages: 1. Pyroxasulfone; 2. Mesotrione; 3 Atrazine; 4. Pyroxasulfone+Mesotrione; 5. Pyroxasulfone+Atrazine; 6. Mesotrione+Atrazine; 7. Pyroxasulfone+Mesotrione+Atrazine. After that, dilute above formulations with water to obtain diluted formulations.
Conduct visual assessment the damage symptom and growth inhibition status of target weeds after 21 days. Weigh up the fresh weight above the ground and calculate the inhibition rate of fresh weight (%).
Anticipated effects of the special combined three active components can be calculated through so called “Colby formula”. If the actual efficiency of weed control observed during the biology test exceeds the anticipated value […] calculated by Colby's formula, then it represents that the efficacy of herbicidal composition is greater than the sum of efficacy of each component, which means the composition has synergistic effect.
The synergistic herbicidal composition of present invention has conducted test on the following important harmful plants (gramineous weeds, broadleaf weeds, sedge weeds) with wide herbicidal spectrum: Echinochloa oryzicola, Digitaria spp., Stellaria media, Amaranthus retroflexus, Fallopia(ex Polygonum) Convolvulus, Abuthilon theophrasti, Sagittariatrifolia, Oriental Waterplantain Rhizome, Herb of Pygmy Arrowhead, Monochoria korsakowii, Lindernia procumbens, Solanum nigrum L., Scirpus juncoides Roxb, Cyperus difformis L., Chenopodium alum L., Avena fatua L. and Galium aparine L. var. tenerum Gren. et (Godr.) Rebb.

In the case of `CCNc1nc(Cl)nc(NC(C)C)n1` [Atrazine, 2-chloro-4-ethylamino-6-isopropylamino-1,3,5-triazine], the “Actual survival rate (%)” value (application rate 1 g/ha) is reported as 100%, the “Actual survival rate (%)” value (application rate 50 g/ha) is reported as 100% and the “Actual survival rate (%)” value (application rate 100 g/ha) is reported as 67%.
`CS(=O)(=O)c1ccc(C(=O)C2C(=O)CCCC2=O)c([N+](=O)[O-])c1` [Mesotrione, 2-(4-mesyl-2-nitrobenzoyl)cyclohexane-1,3-dione] was tested, and the “Actual survival rate (%)” value (application rate 1 g/ha) was 100%, the “Actual survival rate (%)” value (application rate 25 g/ha) was 87% and the “Actual survival rate (%)” value (application rate 50 g/ha) was 74%.
With `Cn1nc(C(F)(F)F)c(CS(=O)(=O)C2=NOC(C)(C)C2)c1OC(F)F` [Pyroxasulfone, 3-[5-(difluoromethoxy)-1-methyl-3-(trifluoromethyl)pyrazol-4-ylmethylsulfonyl]-4,5-dihydro-5,5-dimethyl-1,2-oxazole] the “Actual survival rate (%)” value (application rate 1 g/ha) was 89%, the “Actual survival rate (%)” value (application rate 5 g/ha) was 78% and the “Actual survival rate (%)” value (application rate 10 g/ha) was 60%.
